# Test results published in PMC6547440, “The HRP3 PWWP domain recognizes the minor groove of double-stranded DNA and recruits HRP3 to chromatin” (Nucleic Acids Research, 2019).
# {FAM} = FAM (fluorescein) label on dsDNA for MST
# Key:
# HRP3 PWWP [1] = assay: DNA geometry analysis of the PWWP/DNA complex structures; set-up: species or system human
# Protocol: DNA geometry was analysed with the 3DNA ([42]) and Curves+ ([43]) programs. Electrostatic potentials were calculated using the DelPhi program ([44]). The minor groove width was measured according to the method described ([45]). In detail, the distances between the ith (i indicates the number of the base from one chain) phosphate atom from one chain and the (i + 4)th atom from the paired chain were used to describe the minor groove width at the ith base. Electrostatic potentials were calculated at the midpoints between the above phosphate atom pairs used to calculate the minor groove widths.
# HRP3 PWWP [2] = assay: ITC of HRP3 PWWP with dsDNAs; type: binding, human; details: 20°C, HRP3 PWWP (1–110), 10 mM PBS pH 7.0, 50 mM NaCl, 2 mM β-mercaptoethanol
# Protocol: Isothermal titration calorimetry-based measurements were carried out at 20°C with a MicroCal iTC200 instrument. HRP3 PWWP (1–110) and various dsDNAs were dialysed overnight at 4°C in titration buffer containing 10 mM phosphate-buffered saline (PBS) at pH 7.0, 50 mM NaCl and 2 mM β-mercaptoethanol. Calorimetric titration data were fitted with the Origin software under the algorithm of one binding-site model.
# HRP3 PWWP [3] = assay: MST binding of 5′-FAM-labelled dsDNAs to HRP3 PWWP; set-up: species or system human; details: 16-mer-TA versus 16-mer-random and 16-mer-GC
# Protocol: All Mircoscale thermophoresis (MST) experiments were performed on a Monolith NT115 machine with 20% MST power and 100% LED power. All protein and DNA samples were dissolved in solution containing 50 mM KCl, 10 mM sodium cacodylate at pH 6.5 and 2 mM DTT. The MST samples were prepared by mixing HRP3(1-110) at concentrations ranging from 3 nM to 100 μM into a solution containing 200 nM 5′-FAM-labelled dsDNA. Experiments were performed using Monolith NT115 Standard Treated Capillaries, MO-K002. Dissociation constants were fitted with the MO Affinity Analysis software.
# The DNA sequences used in this assay are as follows: 5′-FAM-16TA: 5′-[…]-3′; 5′-FAM-16GC: 5′-[…]-3′; and 5′-FAM-16random: 5′-[…]-3′.
# HRP3 PWWP F48A = biological target: T1, HRP3 PWWP F48A (Homo sapiens, UniProt Q9Y3E1, F48A); assay: NMR titration of H3K36me3 peptide with HRP3 PWWP F48A; type: binding; details: H3 residues 29–41, 20 mM PBS pH 6.9, 298 K
# T1 construct: using ^15N-labelled HRP3 PWWP (residues 1–110) dissolved in buffer; 6xHis-SUMO (cleaved yes); made in house; host or cells: Escherichia coli Rosetta (DE3)
# T1 sequence (Q9Y3E1 1-110 F48A limits assumed): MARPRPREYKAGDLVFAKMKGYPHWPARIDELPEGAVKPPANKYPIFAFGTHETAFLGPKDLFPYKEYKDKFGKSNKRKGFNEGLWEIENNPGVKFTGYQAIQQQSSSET
# Protocol: (§1) All 2D ^1H-^15N HSQC NMR spectra were collected on the Bruker Avance III HD 600 MHz and 800 MHz spectrometers at 298 K. The NMR data were processed by NMRPipe ([39]) and analysed by KUJIRA ([40]) running with NMRview ([41]) softwares. Chemical shift perturbation experiments were carried out using ^15N-labelled HRP3 PWWP (residues 1–110) dissolved in buffer containing 20 mM PBS at pH 6.9, 20 mM NaCl and 2 mM DTT. A series of 2D ^1H-^15N HSQC spectra were recorded at HRP3 PWWP:H3K36me3/2/1/0 (residues 29–41) molar ratios of 1:0, 1:0.5, 1:1.5, 1:4, 1:6, 1:10, 1:15 and 1:20, respectively. The combined chemical shift perturbation was calculated using the following equation: Δδ = [(Δδ^1H)^2 + (Δδ^15N/5)^2]^1/2. Dissociation constants were calculated by fitting the data to a single-site ligand-binding model (SigmaPlot).
# HRP3 PWWP Y22A = biological target: T2, HRP3 PWWP Y22A (Homo sapiens, UniProt Q9Y3E1, Y22A); assay: NMR titration of H3K36me3 peptide with HRP3 PWWP Y22A; type: binding; details: H3 residues 29–41, 20 mM PBS pH 6.9, 298 K
# T2 construct: using ^15N-labelled HRP3 PWWP (residues 1–110) dissolved in buffer; 6xHis-SUMO (cleaved yes); made in house; host or cells: Escherichia coli Rosetta (DE3)
# T2 sequence (Q9Y3E1 1-110 Y22A): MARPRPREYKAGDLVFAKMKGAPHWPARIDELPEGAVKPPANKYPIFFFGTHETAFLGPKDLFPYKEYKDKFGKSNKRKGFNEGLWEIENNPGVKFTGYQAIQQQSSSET
# Protocol: as §1
# HRP3 PWWP WT = biological target: T3, HRP3 PWWP WT (Homo sapiens, UniProt Q9Y3E1); assay: NMR titration of H3K36 peptides with wild-type HRP3 PWWP; type: binding; details: 15N-labelled HRP3 PWWP (1–110) WT, H3 residues 29–41, 20 mM PBS pH 6.9, 20 mM NaCl, 2 mM DTT, 298 K
# T3 construct: using ^15N-labelled HRP3 PWWP (residues 1–110) dissolved in buffer; 6xHis-SUMO (cleaved yes); made in house; host or cells: Escherichia coli Rosetta (DE3)
# T3 sequence (Q9Y3E1 1-110): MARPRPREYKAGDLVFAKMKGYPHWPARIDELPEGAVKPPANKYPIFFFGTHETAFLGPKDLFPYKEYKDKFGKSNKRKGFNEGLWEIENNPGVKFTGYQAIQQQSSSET
# Protocol: as §1
# HRP3 PWWP E53A = biological target: T4, HRP3 PWWP E53A (Homo sapiens, UniProt Q9Y3E1, E53A); assay: NMR titration of H3K36me3 peptide with HRP3 PWWP E53A; type: binding; details: H3 residues 29–41, 20 mM PBS pH 6.9, 298 K
# T4 construct: using ^15N-labelled HRP3 PWWP (residues 1–110) dissolved in buffer; 6xHis-SUMO (cleaved yes); made in house; host or cells: Escherichia coli Rosetta (DE3)
# T4 sequence (Q9Y3E1 1-110 E53A limits assumed): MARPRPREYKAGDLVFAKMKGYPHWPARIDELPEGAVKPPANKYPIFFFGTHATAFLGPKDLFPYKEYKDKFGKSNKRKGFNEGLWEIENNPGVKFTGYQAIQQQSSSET
# Protocol: as §1
# HRP3 PWWP aromatic cage = assay: Crystal structure of apo-form HRP3 PWWP (8–94), MES in aromatic cage; type: binding, human; details: 0.95 Å
# Protocol: Crystallization was conducted using the sitting drop vapour diffusion method by mixing an equal volume of protein and well solution. Apo-form HRP3 PWWP (8–94) was crystallized with crystallization buffer containing 0.2 M ammonium sulfate, 0.1 M MES monohydrate, pH 6.5 and 30% w/v polyethylene glycol monomethyl ether 5000. The crystallization buffer containing 12% 2,3-butanediol was used as the cryoprotectant.
# Datasets for all crystals were collected at the beamlines of the Shanghai Synchrotron Radiation Facility (SSRF). The datasets were processed using HKL2000 ([33]), and the structures were solved by molecular replacement using the programme PHENIX ([34]) with the HDGF2 PWWP domain (PDB number: 3EAE) as the search model. The initial model was rebuilt in COOT ([35]) and further refined by PHENIX.
# chromatin of HepG2 cells = assay: ChIP-Seq of GFP-HRP3 variants in HepG2 cells; type: cell-based, human
# Protocol: (§2) HepG2 (ATCC HB-8065) and HEK293T human embryonic kidney cells (ATCC #CRL-11268) were cultured in Dulbecco’s modified Eagle’s medium supplemented with 10% FBS. Stable overexpression of wild-type or mutant HRP3 in HepG2 cells was performed using FUGW lentiviral constructs expressing wild-type or mutant HRP3. Lentiviral vector infections ([47]) and plasmid transfections ([48]) were performed as previously described. Overexpression efficiency was determined by western blot.
# For chromatin immunoprecipitation, HepG2 cells were cross-linked with 1% formaldehyde at 37°C for 10 min and quenched with 0.125 M glycine for 5 min at room temperature. ChIP was performed using a ChIP assay kit (Millipore) according to the manufacturer’s protocol. Antibodies used for ChIP were GFP (gta-20, Chromo-Tek) and H3K36me3 (ab9050, abcam).
# ChIP-Seq data were aligned to human genome hg19 using Bowtie 1.0 allowing one mismatch. Two biological replicates were performed and combined for the analysis. Analysis was performed using the Galaxy ([49]) and Cistrome ([50]) Platform and via custom R scripts for Bioconductor ([51]). Peak calling was performed using MACS2. Promoter definitions were downloaded from the UCSC browser ([52]). DNase I hypersensitivity and MNase-Seq data from ENCODE (GSM816662, GSM920557) ([53]) were used.
# HepG2 cells = assay: Fluorescence microscopy of GFP-HRP3 in HepG2 cells; type: cell-based, human; details: GFP fusion in HepG2 cells
# Protocol: as §2
# The cells were first fixed with 4% paraformaldehyde in PBS buffer for 30 min at room temperature, and then washed with PBS buffer twice. The cells were permeabilized with 0.5% Triton X-100 in PBS buffer for 10 min followed with PBS washing twice. Then, the cells were incubated with1 μg/ml 4′,6-diamidino-2-phenylindole (DAPI) (C0060, Solarbio) in PBS for 5 min. After washing with PBS buffer twice, the cells were ready for microscopic observation. 3D structural illumination microscopy was performed using N-SIM Super-resolution Microscope System (Nikon) with an objective lens CFI Plan (Apochromat Lambda 40 ×, 0.95 numerical aperture; Nikon).
molecule,measurement,setting,value
"5′-TATATATATATATATA-3′ (DNA, 5' {FAM}, backbone not given here; double-stranded DNA, FAM label in MST assay) [16-mer-TA, 16-bp TA-rich dsDNA]",average helical twist,HRP3 PWWP [1]; 3DNA,37.1 °
same,average propeller twist,HRP3 PWWP [1]; 3DNA,−11.2 °
same,bending angle towards the minor groove per 6 bps,HRP3 PWWP [1]; Curve+ software,2.9 °
same,"width of the minor groove, PWWP-binding region",HRP3 PWWP [1]; crystal structure of complex,10.7 Å
same,"width of the minor groove, PWWP-free region",HRP3 PWWP [1]; crystal structure of complex,10.8 Å
same,TA-rich preference by ITC,HRP3 PWWP [2],TA-rich preference was further verified by ITC-based measurements
same,fold higher affinity,HRP3 PWWP [3],2–3 fold
CC(C)[C@H](NC(=O)CNC(=O)CNC(=O)[C@@H](NC(=O)[C@H](C)NC(=O)[C@@H]1CCCN1C(=O)[C@H](C)N)[C@@H](C)O)C(=O)N[C@@H](CCCC[N+](C)(C)C)C(=O)N[C@@H](CCCCN)C(=O)N1CCC[C@H]1C(=O)N[C@@H](Cc1c[nH]cn1)C(=O)N[C@@H](CCCNC(=N)N)C(=O)N[C@@H](Cc1ccc(O)cc1)C(=O)O [H3K36me3],Kd,HRP3 PWWP F48A,9.4 ± 2.1 mM
same,Kd,HRP3 PWWP Y22A,21 ± 9 mM
same,Kd,HRP3 PWWP WT,1.4 ± 0.6 mM
same,Kd,HRP3 PWWP E53A,8 ± 1.9 mM
O=S(=O)(O)CCN1CCOCC1 [MES],position of bound molecule,HRP3 PWWP aromatic cage,positioned in the middle of the aromatic cage
HRP3: wild-type human HRP3 as GFP fusion protein in HepG2 cells,DNase I hypersensitivity and nucleosome density of HRP3-enriched regions,chromatin of HepG2 cells; ChIP-Seq versus ENCODE DNase I / MNase-Seq data,increased DNase I hypersensitivity and reduced nucleosome density
same,chromatin binding / recruitment by ChIP-Seq,"chromatin of HepG2 cells; ChIP-Seq with GFP antibody, HepG2, two biological replicates combined",enriched at promoters and gene bodies
same,specific DNA-binding motif enrichment,"chromatin of HepG2 cells; ChIP-Seq, HepG2",could not detect the enrichment of a specific DNA-binding motif
same,subcellular localisation,HepG2 cells,enriched in the nucleus
